# Source: patent publication US7662853B2, “Monoacetyldiacylglycerol derivative for the treatment of sepsis” (priority 2004, dated 2010)
# Tests used:
# ICR mice = assay: Toxicity test, single oral administration; type: in vivo; conditions: for Number of dead mice/Number of orally administered mice: 14 days
# Protocol: (§1) Control group was treated 5% ethanol solution. IRC mice, housed in SPF facility were used as test animals. […] Weight increment rate(%)={Weight of day 14−Weight of day 0}÷{Weight of day 0}×100 [Mathematical Formula 2]
# [1] = Toxicity test, single oral administration; type: in vivo; conditions: mouse, in vivo; ICR mice, oral, single dose, 14 days
# Protocol: as §1
# [2] = test system: C3H/HeN mice with CLP-induced septic shock; assay: CLP (Cecal Ligation and Puncture) test, septic shock; type: in vivo; conditions: 50 mg/kg oral
# Text: Ten 7-10 week old male inbred C3H/HeN mice (20-25 g of weight) were grouped. […] Septic shock was induced by CLP model in anesthetized mice. […] Control group was orally administered PBS+5% ethanol solution.
# T-cells [3] = assay: T-cell proliferation (3H-thymidine incorporation, SI); type: cell-based, C57BL/6 mice; conditions: 7th day
# Text: Splenocytes were collected from C57BL/6 mice (provided from Asan Institute for Life Sciences Animal Lab., Seoul, Korea) spleens. Then, single cell suspensions were obtained by repeated aspiration and flushing. Red blood cells were removed using ammonium chloride and then passed through nylon wool to remove debris and clumps. T-cells were purified using magnetic bead (MACS bead, Miltenyi Biotec, bergich gladbach, Germany) containing anti-goat IgG MACS bead, Miltenyi Biotec, bergich gladbach, Germany) or anti-mouse CD4 (MACS bead, Miltenyi Biotec, bergich gladbach, Germany) or anti-mouse CD8 antibody (MACS bead, Miltenyi Biotec, bergich gladbach, Germany) (Turner and Dockrell (1996) Immunology, 87: 339-342).
# T cell suspensions were suspended in Isocove's modified Dulbecco's medium (IMDM, Gibco, Grand Island, N.Y.) supplemented with 10% fetal bovine serum (referred as ‘FBS’ hereinafter) (Gibco, Grand Island, N.Y.). […] On the 6th day, cells were incubated with 1 μCi ^3H-thymidine/well for 24 hours. On the 7th day, the cells were harvested and the […] (referred as ‘SI’ hereinafter) was calculated by the following Mathematical Formula 1. SI=^3H-thymidine absorbed by wells of experimental group (CPM in sample)/^3H-thymidine absorbed by wells of control group (CPM in control) [Mathematical Formula 1]
# KIBG-5 cells = assay: Biliary cancer model in hamster (7 treatment groups); type: in vivo, Syrian golden hamsters; conditions: Compound 3 25 mg/kg/day P.O.
# Protocol: Six week old female Syrian golden hamsters (Harlan, Indianapolis, […], USA) were housed in specific pathogen free unit. 5×10^5 KIBG-5 cells (Molecular therapy, Vol. 3, No. 4, pp 431-437) suspended in 100 μl of RPMI 1640 serum-free medium were intravenously injected via femoral vein. And 5×10^5 KIBG-5 cells suspended in 100 μl of RPMI 1640 serum-free medium were subcutaneously injected to the flank of the hamsters. Hamsters injected KIBG-5 were divided into following 7 groups;
# 1) Control group treated with RPMI medium,
# 2) Experimental group treated with non-modified BMSC cells (2.5×10^6) (Leukemia & Lymphoma, Vol. 44, No. 11, pp 1973-1978),
# 3) Experimental group treated with BMSC cells modified with Ad/ΔE1 50 MOI (Leukemia & Lymphoma, Vol. 44, No. 11, pp 1973-1978),
# 4) Experimental group treated with DC+ tumor lysate (5×10^6),
# 5) Experimental group treated with BMSC cells modified with Ad/hIL-2 50 MOI (Leukemia & Lymphoma, Vol. 44, No. 11, pp 1973-1978),
# One week after the injection of cancer cells to hamsters (BMSC treated group), 2.5×10^6 of BMSC cells were injected once again to each hamster. In the case of DC+tumor lysate treated group, 5×10^6 of DC cells and tumor lysate were injected to each hamster (with subcutaneous injection or intravenous injection) at the first, second, third, forth, sixth, eighth week, followed by observation for 12 weeks.
# malignant melanoma cells = assay: Cytotoxicity of T-cells activated by Compound 3 to malignant melanoma cells; type: cell-based; conditions: ratio of T-cells activated by Compound 3 to melanoma cells 100:1; FIG. 16: 1 μg/ml
# rats = assay: Long term hepatotoxicity test; type: in vivo; conditions: 100 mg/Kg body weight/day P.O. for 4 weeks
# Text: At the end of 4 weeks liver histology was observed.
# T-cells [4] = assay: Measurement of cytokine by Bio-plex in activated T-cells; type: cell-based; conditions: anti-CD3, anti-CD28 treated T-cells, 0.1, 1 μg/ml, 5 days, vs control
# Protocol: Bio-plex can measure huge amount of cytokine at a time in a well. Thus, Bio-plex kit was used to quantify 8 kinds of cytokines of Th1/Th2 channels, which are secreted when T-cells are activated. Sterilized 24-well tissue culture plate (Nunc, Denmark) was treated with anti-CD3 and anti-CD28. Then, the plate was inoculated with T-cells by 2×10^6 cells/ml. […] On the 5th day, culture solutions at each different stage were recovered, followed by centrifugation. Supernatants were obtained and cytokine secreted therein was quantified by using Bio-plex kit according to the manufacturer's instruction (Bio-rad).
compound,measurement,setting,value
CCCCC/C=C\C/C=C\CCCCCCCC(=O)OC(COC(C)=O)COC(=O)CCCCCCCCCCCCCCC (stereo not drawn) [Compound 3],Death rate,ICR mice; 62.5 mg/kg oral once,12.5%
same,Number of dead mice/Number of orally administered mice,ICR mice; 62.5 mg/kg oral once,1/8
same,toxicity,"ICR mice; 62.5 mg/kg˜2 g/kg oral once, 14 days observation",No toxicity was seen
same,Death rate,ICR mice; 125 mg/kg oral once,30%
same,Number of dead mice/Number of orally administered mice,ICR mice; 125 mg/kg oral once,0/8
same,Death rate,ICR mice; 250 mg/kg oral once,12.5%
same,Number of dead mice/Number of orally administered mice,ICR mice; 250 mg/kg oral once,1/8
same,Death rate,ICR mice; 500 mg/kg oral once,22.2%
same,Number of dead mice/Number of orally administered mice,ICR mice; 500 mg/kg oral once,2/9
same,Death rate,ICR mice; 1000 mg/kg oral once,0%
same,Number of dead mice/Number of orally administered mice,ICR mice; 1000 mg/kg oral once,0/9
same,Death rate,ICR mice; 2000 mg/kg oral once,0%
same,Number of dead mice/Number of orally administered mice,ICR mice; 2000 mg/kg oral once,0/9
same,LD50 at 14 days,[1],> 2000 mg/kg
same,Survival rate,[2]; 0 hour,100%
same,Survival rate,[2]; 24 hours,100%
same,Survival rate,[2]; 48 hours,100%
same,Survival rate,[2]; 72 hours,100%
same,Survival rate,[2]; 96 hours,100%
same,Survival rate,"[2]; 120 hours, 50 mg/kg",100%
same,SI,T-cells [3]; 0.01 μg/ml,1.83 ± 0.32
same,SI,T-cells [3]; 0.1 μg/ml,1.96 ± 0.18
same,tumor formation,KIBG-5 cells; 4 weeks after cancer cell injection,no tumor were found
same,metastatic lung lesions,KIBG-5 cells; 8 weeks after cancer cell injection (i.v.),only one minute lung lesion was found
same,cytotoxicity increased,malignant melanoma cells,42%
same,"adverse effect (liver function test, lipid profile, cytochrome C-450 activity, liver histology)",rats,No significantly adverse effect was observed
same,"amounts of secreted cytokines IL-2, IL-4 and IL-5",T-cells [4],bigger than those in a control group
